Values quoted from earlier work, collected in patent US20050272712A1, “Compositions and methods for treatment of premenstrual dysphoric disorder” (Wyeth, priority 2004, published 2005).

Details: daily dose of either 20 mg or 60 mg; Steiner et al. 1995

Structure (SMILES): CNCCC(Oc1ccc(C(F)(F)F)cc1)c1ccccc1 (stereo not shown) [fluoxetine]
- reduction of symptoms versus placebo: superior to placebo in reducing symptoms
